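48-hour exposure; five concentrations; linearly interpolated endpoints. At the TGI there is no net growth.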
Experiments:
Experiment in all cases: NCI tumour cell line growth inhibition, 48 h
[1] = system: DMS 114 small cell lung
[2] = system: RXF-631 renal
[3] = system: XF 498 CNS
[4] = system: M19-MEL melanoma
[5] = system: LXFL 529 NSCLC
[6] = system: P388/ADR leukemia
[7] = system: SN12K1 renal
[8] = system: P388 leukemia

| SMILES | TGI [1] | TGI [2] | TGI [3] | TGI [4] | TGI [5] | TGI [6] | TGI [7] | TGI [8] |
| --- | --- | --- | --- | --- | --- | --- | --- | --- |
| CC(NC(C)(C)C)C(=O)c1cccc(Cl)c1 (centres undefined) | > 100 µM | > 100 µM | > 100 µM | > 100 µM | > 100 µM | – | – | – |
| N#C/C(=C\c1c[nH]c2ccccc12)C(=O)c1ccc(O)c(O)c1 | – | – | > 100 µM | > 100 µM | > 100 µM | – | – | – |
| CCOC(=O)CSc1nnc(C(Sc2nc(-c3ccccc3)c(-c3ccccc3)[nH]2)C(C)C)n1-c1ccccc1 (centres undefined) | > 10 µM | – | – | > 10 µM | > 10 µM | – | – | – |
| COc1cc(/C=C(/C#N)C(N)=O)ccc1O | > 100 µM | – | > 100 µM | > 100 µM | – | > 100 µM | > 100 µM | > 100 µM |
| CCCc1ccc(NCc2cc(OC)c(OC)c(OC)c2)cc1 | 29.8 µM | – | 52.8 µM | 44.6 µM | 40.5 µM | – | – | – |
| Cc1ccc(CC(C)N)cc1 (centres undefined) | > 100 µM | > 100 µM | – | – | > 100 µM | – | – | – |

— PubChem BioAssay (NCI)
